For 3 molecules, Ki and ki/Ki results are on record in ChEMBL document CHEMBL1129918, “Peptide argininol inverse substrates of anisic acid: Novel inhibitors of the trypsin-like serine proteinases” (Bioorg Med Chem Lett, 1997).

For one assay, the target named is Prothrombin (Homo sapiens, UniProt P00734). The assay is described as follows: Evaluated for inhibition against thrombin.
For assay [1], the target named is Serine protease 1 (Homo sapiens) (UniProt P07477). Description: The inhibitor specificity constant ki/Ki was evaluated for the compound against trypsin.
Serine protease 1 (Homo sapiens), sequence (P07477 whole entry): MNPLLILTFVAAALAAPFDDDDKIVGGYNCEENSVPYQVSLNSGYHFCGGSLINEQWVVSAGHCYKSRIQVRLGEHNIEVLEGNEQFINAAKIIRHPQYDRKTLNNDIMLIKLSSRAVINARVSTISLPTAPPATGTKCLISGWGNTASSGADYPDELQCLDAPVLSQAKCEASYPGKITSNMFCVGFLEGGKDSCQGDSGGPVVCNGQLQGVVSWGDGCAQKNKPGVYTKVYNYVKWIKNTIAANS
For assay [2], the target named is Coagulation factor X (Homo sapiens) (UniProt P00742). Description: Inhibitor specificity constant ki/Ki was evaluated for the compound against Factor Xa.
Coagulation factor X (Homo sapiens), sequence (P00742 41-179 limits assumed): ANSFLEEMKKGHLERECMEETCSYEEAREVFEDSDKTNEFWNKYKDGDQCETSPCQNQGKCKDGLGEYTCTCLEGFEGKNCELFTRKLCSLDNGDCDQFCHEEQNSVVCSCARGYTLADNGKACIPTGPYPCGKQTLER
Coagulation factor X (Homo sapiens), sequence (P00742 235-488 limits assumed): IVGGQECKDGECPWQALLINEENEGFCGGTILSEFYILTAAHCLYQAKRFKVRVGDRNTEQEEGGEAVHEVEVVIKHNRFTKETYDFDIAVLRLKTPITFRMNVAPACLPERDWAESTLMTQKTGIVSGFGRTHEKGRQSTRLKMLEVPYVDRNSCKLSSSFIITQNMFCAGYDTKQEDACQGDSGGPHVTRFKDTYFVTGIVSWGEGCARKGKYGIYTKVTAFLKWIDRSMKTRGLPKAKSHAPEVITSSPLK
The next assay addresses Tryptase (Homo sapiens) (UniProt Q9BZJ3+Q15661+Q9NRR2). The assay is described as follows: Inhibitor specificity constant ki/Ki was evaluated for the compound against tryptase; NI means No inhibition. The format is protein assay.

Activity calls are given as the source filed them. No cut-off for these calls is given here.

The term Ki denotes a measure of affinity in units of concentration, obtained from inhibition or displacement. With `COc1ccc(C(=O)OC[C@H](CCCN=C(N)N)NC(=O)[C@@H]2CCCN2C(=O)[C@@H](Cc2ccccc2)NC(=O)OC(C)(C)C)cc1`, on Prothrombin, affinity was put at a Ki of 14 µM. The ki/Ki in assay [1] came out at 0.0417 M⁻¹ s⁻¹.
As to `CC[C@H](C)[C@H](NC(=O)OC(C)(C)C)C(=O)N[C@@H](CCC(=O)O)C(=O)NCC(=O)N[C@@H](CCCN=C(N)N)COC(=O)c1ccc(OC)cc1`, in assay [2], the ki/Ki worked out at 0.075 M⁻¹ s⁻¹.
On to `COc1ccc(C(=O)OC[C@H](CCCN=C(N)N)NC(=O)[C@H](CCC(N)=O)NC(=O)[C@H](CCCN=C(N)N)NC(C)=O)cc1`, for which the ki/Ki result on Tryptase (Homo sapiens) was “inactive”.
